Reference: ChEMBL document CHEMBL1152341, “Polyacetylenes from sardinian Oenanthe fistulosa: a molecular clue to risus sardonicus” (J Nat Prod, 2009)

Tests used:
neuronal = assay: (§1) Antagonist activity at GABAA receptor in Wistar rat neuronal cells assessed inhibition of GABA-evoked response by patch-clamp technique; type: functional, cell-based
[1] = as §1; type: functional, cell-based

Compound	Activity (neuronal)	EC50 [1] [nM]
CCC[C@@H](O)CC/C=C/C=C/C#CC#C/C=C/CO [OENANTHOTOXIN]	Dose-dependent effect	1390
CCC[C@@H](O)CC/C=C/C=C/C#CC#CCCCO [DIHYDROOENANTHOTOXIN]	–	835
